Assays:
Type in all cases: cell-based, human
[1] = system: MIA PaCa-2 pancreatic cancer; assay: Cell viability assay (dose-response); conditions: 6.6 μM cisplatin
Description: (§1) Cell viability was measured by MTS assay (Abcam, #ab197010) or by CellTiter-Glo™ assay (Promega, #G7570). Cells were seeded at 96-well plates at densities of 2000˜5000 cells per well overnight. Treatment was added to the cells at indicated concentrations for 72 h. Cell viability was measured by incubating with MTS reagent for 4 h and reading absorbance at 490 nm or incubating with CellTier-Glo™ reagent for 10 min and reading luminescence by a plate reader. Six replicates were used for each group.
(§2) Platinum is widely used across malignancies. […] These findings are broadly applicable to multiple types of cisplatin-resistant cancers. FIG. 8 illustrates the cellular metabolism switch from glycolysis to fatty acid oxidation with decreased glucose uptake, glycolysis and de novo lipogenesis while fatty acid uptake and oxidation are increased.

MD-MBA231 breast cancer = assay: Cell viability assay (dose-response); conditions: 6.6 μM cisplatin
Description: as §1, §2

A549 lung cancer = assay: Cell viability assay (dose-response); conditions: 6.6 μM cisplatin
Description: as §1, §2

MIA PaCa-2 cells = assay: Isotope labeling and SRS imaging after cisplatin treatment; conditions: 6.6 μM cisplatin for 24 hours, then 100 μM PA-d31 or OA-d34 for 6 h
Description: (§3) For labeling with glucose-d7, media was replaced with glucose-free DMEM medium (Thermo Fisher Scientific, #11966025)+10% FBS+P/S supplemented with 25 mM glucose-d7 after seeding the cells in 35 mm glass-bottom dishes overnight. For labeling with FA or analogs, including PA-d31, OA-d34, and ODYA, FA or analogs were added to the culture media at final concentration of 100 μM and cells were treated for 6 h. For quantitative SRS imaging, cells on glass-bottom dishes were fixed with 10% neutral buffered formalin for 30 min and washed with PBS for 3 times. Hyperspectral SRS imaging was performed to the cells at Raman spectral region from 2100 to 2300 cm^−1.
as §2

MD-MBA231 cells = assay: as above; conditions: 6.6 μM cisplatin for 24 hours, then 100 μM PA-d31 or OA-d34 for 6 h
Description: as §3, §2

A549 cells = assay: as above; conditions: 13.2 μM cisplatin for 48 hours, then 100 μM PA-d31 or OA-d34 for 6 h
Description: as §3, §2

PEO4 cells [2] = assay: Cell viability assay (dose-response); conditions: read-out: IC50 for cisplatin; PE04 cells
Description: as §1
(§4) In addition, isogenic PEO1/PEO4 cell lines derived from the same patient were studied, at the time of a platinum sensitive (PEO1) and platinum resistant-recurrence (PEO4).
(§5) Having shown decreased glucose-derived anabolism and increased fatty acid uptake in cisplatin-resistant ovarian cancer cells, whether this metabolic feature can be used for differentiation of cisplatin-resistant from cisplatin-sensitive cancer cells was explored. […] In Table 2 below, quantitation of glucose-d7 (G-d7), PA-d31, and OA-d34 are shown as area fraction of C-D signal out of total cellular area, in mean values.

PEO1 cells [3] = assay: Cell viability assay (dose-response); conditions: read-out: IC50 for cisplatin; PE01 cells
Description: as §1, §4, §5

COV362 cells = assay: Cell viability assay (dose-response); conditions: read-out: IC50 for cisplatin
Description: as §1, §4, §5

COV362-cisR cells = assay: Cell viability assay (dose-response); conditions: read-out: IC50 for cisplatin; COV362-cisR cells
Description: as §1, §4, §5

OVCAR5-cisR cells [4] = assay: Cell viability assay (dose-response); conditions: read-out: IC50 for cisplatin; OVCAR5-CisR cells
Description: as §1, §4, §5

SKOV3-cisR cells = assay: Cell viability assay (dose-response); conditions: read-out: IC50 for cisplatin; SKOV3-CisR cells
Description: as §1, §4, §5

OVCAR5 cells [5] = assay: Cell viability assay (dose-response); conditions: read-out: IC50 for cisplatin; OVCAR5 cells
Description: as §1, §4, §5

OVCAR5 cells [6] = assay: Glucose uptake assay (2-NBDG); conditions: 3.3 μM cisplatin for 24 hours, 100 μM 2-NBDG for 2 hours
Description: Glucose uptake was measured using a fluorescent glucose analog 2-deoxy-2-[(7-nitro-2,1,3-benzoxadiazol-4-yl) amino]-D-glucose (2-NBDG) (Cayman Chemicals). Cells seeded in glass-bottom dishes were incubated with 100 μM 2-NBDG for 2 h. Fluorescent images were taken by confocal microscope (Zeiss® LSM 700 microscope) with 488 nm laser as excitation source. Images at ˜10 field of view were acquired for each sample.

[7] = system: cisplatin-resistant OC cell lines; assay: Cisplatin dose response, resistant versus parental cell lines; conditions: all the resistant cell lines versus parental
Description: Ovarian cancer cell lines used in the methods include SKOV3, PEO1, OVCAR5, and COV362, and their cisplatin-resistant counterparts include SKOV3-cisR, PEO4, OVCAR5-cisR, and COV362-cisR. SKOV3 (Cat #: HTB-77), Mia Paca2 (Cat #: CRL-1420), MDA-MB-231 (Cat #: CRM-HTB-26) and A549 (Cat #: CCL-185) cells were purchased from the American Type Culture Collection (ATCC, Manassas, VA). PEO1 (Cat #: 10032308) and PEO4 (Cat #: 10032309) were purchased from Sigma Aldrich. OVCAR5 cells were a generous gift from Dr. Marcus Peter, Northwestern University, and COV362 cells were from Dr. Kenneth Nephew, Indiana University. All cell lines were authenticated and tested to be mycoplasma negative. Mia Paca2 and A549 are in the list of known misidentified cell lines maintained by the International Cell Line Authentication Committee, while their authentication was performed by ATCC through STR profiling. […] Surviving cells were allowed to recover for 3 to 4 weeks before receiving the next treatment. […]
Cell viability was measured by MTS assay (Abcam, #ab197010) or by CellTiter-Glo™ assay (Promega, #G7570). […] Cell viability was measured by incubating with MTS reagent for 4 h and reading absorbance at 490 nm or incubating with CellTier-Glo™ reagent for 10 min and reading luminescence by a plate reader. […]

PEO4 cells [8] = assay: OCR and ECAR by Seahorse analysis; conditions: 13.2 μM cisplatin
Description: (§6) Cell lines were seeded in a Seahorse® XF96 Cell Culture Microplate (Agilent) at density of 6×10^4 (OVCAR5 pair) or 4×10^4 (PEO pair) per well. After incubation at 37° C. overnight for cell attachment, OCR, and extracellular acidification rate (ECAR) were measured through Seahorse® XFe96 Analyzer (Agilent). Measurement time was 30 seconds following 3 minutes mixture and 30 seconds waiting time. First three cycles were used for basal respiration measurement. […] Basal respiration, ATP production and maximal respiration reduction were calculated following the manufacturer's instructions.

PEO1 cells [9] = assay: OCR and ECAR by Seahorse analysis; conditions: 13.2 μM cisplatin
Description: as §6

OVCAR5-cisR cells [10] = assay: Reactive oxidative species measurement (DCFDA); conditions: cisplatin 1.6 μM or 3.3 μM for 24 hours
Description: (§7) Cellular reactive oxidative species (ROS) was measured using a fluorescent probe, 2′,7′-Dichlorofluorescin diacetate (DCFDA) (Sigma Aldrich). […] DCFDA was added to the medium at final concentration of 10 μM and incubated for 15 min. After washing with PBS for 3 times, cells were immediately imaged under confocal microscope (Zeiss LSM 700 microscope) with 488 nm as the exciting source. Laser power was controlled at low setting to avoid fluorescence extinction. Images at ˜10 field of view were acquired for each sample.

OVCAR5 cells [11] = assay: Reactive oxidative species measurement (DCFDA); conditions: cisplatin 1.6 μM or 3.3 μM for 24 hours
Description: as §7

## N.N.[Cl][Pt][Cl] [cisplatin]
[1]
  cell death: no significant cell death
MD-MBA231 breast cancer
  cell death: no significant cell death
A549 lung cancer
  cell death: no significant cell death
MIA PaCa-2 cells
  uptake of PA-d31 and OA-d34 (C-D signal): significantly increased
MD-MBA231 cells
  PA-d31 and OA-d34 uptake (C-D signal): significant increase
A549 cells
  PA-d31 and OA-d34 uptake (C-D signal): significant increase
PEO4 cells [2]
  IC50: 13.6 µM
PEO1 cells [3]
  IC50: 4.72 µM
COV362 cells
  IC50: 7.19 µM
COV362-cisR cells
  IC50: 15.2 µM
OVCAR5-cisR cells [4]
  IC50: 17.4 µM
SKOV3-cisR cells
  IC50: 17.3 µM
OVCAR5 cells [5]
  IC50: 8.26 µM
OVCAR5 cells [6]
  glucose uptake, measured by 2-NBDG: reduced
[7]
  increase of IC50 compared to parental counterpart cell lines: 2-3 fold
PEO4 cells [8]
  ECAR rate: promptly lowered
PEO4 cells [8]; before and 30 minutes after
  OCR: slight increase of OCR
PEO1 cells [9]
  ECAR rate: promptly lowered
PEO1 cells [9]; before and 30 minutes after
  OCR: slight increase of OCR
OVCAR5-cisR cells [10]
  ROS production (DCF fluorescent signal intensity): significant increase of ROS production
OVCAR5 cells [11]
  ROS production (DCF fluorescent signal intensity): significant increase of ROS production

From patent US12055536B2, “Device for detection of cellular stress” (Trustees of Boston University, priority 2021, dated 2024)
